In patent US10525030B2 (priority 2013, dated 2020):

Test system: lithium-pilocarpine model of temporal lobe epilepsy
Experiment: Neuroprotection activity using the lithium-pilocarpine model of temporal lobe epilepsy
Format: in vivo, Male Sprague-Dawley rats
Settings: rats after Li-pilocarpine
Procedure: Male Sprague-Dawley rats (purchased from Orient Bio Inc. Korea) of body weight 175-230 g were used for these studies and housed 4 rats per cage for 4-5 days. On the day prior to status epilepsy (SE), rats received 127 mg/kg lithium chloride (Sigma, St. Louis, Mo., U.S.A.) intraperitoneal (i.p.). Approximately 18-20 h following this treatment, rats were given an i.p. injection of 43 mg/kg pilocarpine (Sigma). An i.p. injection of 2 mg/kg methyl-scopolamine (Sigma) was administered 30 min prior to pilocarpine to block the effects of the muscarinic agonist on peripheral cholinergic receptors. The effects of various dose compound (or example) 1, 65 and 67, dissolved in 30% Poly Ethylene Glycol 400 (Acros Organics, Geel, Belgium) were studied at 30 min after SE onset. The drugs were administered i.p. in a volume of 2 ul/g body weight. Pharmacological effects of all the test materials were evaluated to compared test groups (n=8) with a control group (n=8). Control group was administrated vehicle, only. All animals were kept for 2 weeks to look at the mortality and quantification of cell densities was performed 14 days after SE in test groups and control rats not subjected to SE. The animals were deeply anesthetized by injection lumpun plus zoletile, 7:3 (v/v) and perfused transcardially with 150 ml of ice-cold 0.01 M phosphate buffer followed by 250 ml of freshly prepared ice-cold 4% paraformaldehyde (PFA) in 0.1 M phosphate buffer, pH 7.4. The brains were removed and postfixed in the same fixative for an additional 22˜24 h at 4° C., and then transferred to 30% sucrose for cryoprotection until the samples were precipitated. Brains were frozen in methyl butane with dry ice and stored at −80° C. Serial coronal […] slices were cut in a cryostat (Microtome HM 1850, Leica, Germany) and put the sections onto the slides, and air-dried before thionine staining. Every fifth section was selected for morphometric analysis.
Neuronal density quantification was performed automatically with the MCID Elite software (Interfocus Ltd, Linton, UK) by counting the number of neurons present in a defined area of the structure of interest (dorsal hippocampus—CA1, CA3, DZ) and carried out with a microscopic enlargement of 200- or 400-fold. Countings were performed twice on each side in each region by a single observer unaware of animal's treatment and averaged. In each structure, the mean and minimal surface area of the neurons were determined in order to count only neurons and exclude glial cells with smaller cell bodies. (Ref., Jennifer François, Katuschia Germe, Arielle Ferrandon, Estelle Koning, Astrid Nehlig (2011) Carisbamate has powerful disease-modifying effects in the lithium-pilocarpine model of temporal lobe epilepsy, Neuropharmacology 61: 313˜328)
Data were expressed as mean±sem. Statistical analysis of difference between groups was evaluated by ANOVA followed by Dunnett's test or Bonferroni test as a post hoc analysis using Statistica (Statsoft, Inc., USA). Difference was considered statistically significant when the p value was less than 0.05.

| SMILES | survival rate (5 mg/kg i.p. 30 min after SE onset, kept 2 weeks (FIG. 4)) [%] | survival rate (25 mg/kg i.p. 30 min after SE onset, kept 2 weeks (FIG. 4)) [%] | survival rate (50 mg/kg i.p. 30 min after SE onset, kept 2 weeks (FIG. 4)) [%] | survival rate (30 mg/kg i.p. 30 min after SE onset, kept 2 weeks (FIG. 5)) [%] | survival rate (120 mg/kg i.p. 30 min after SE onset, kept 2 weeks (FIG. 5)) [%] |
| --- | --- | --- | --- | --- | --- |
| C[C@H](OC(N)=O)[C@@H](O)c1ccccc1I [Compound 65, 1-(2-iodophenyl)-(S)-1-hydroxypropyl-(S)-2-carbamate] | 50 | 62.5 | 100 | – | – |
| CC[C@H](OC(N)=O)[C@@H](O)c1ccccc1I [Compound 67, 1-(2-iodophenyl)-(S)-1-hydroxybutyl-(S)-2-carbamate] | – | – | – | 25 | 100 |
